Laboratory results reported in US10266526B2, “Substituted 1,2,3-triazoles as SMYD inhibitors for treating cancer” (EPIZYME, INC., priority 2014, dated 2019).
Like-named read-outs stand apart in the source and are kept apart here.

Molecular target: SMYD3 (Homo sapiens (Human), UniProt Q9H7B4)
Experiment: SMYD3 biochemical assay (SMYD3 enzyme assay on MEKK2 protein substrate, 3H-SAM scintillation proximity assay)
Procedure, shortened: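 Detection used scintillation proximity beads to capture ³H-methylated GST-MEKK2 after quench with 100 uM final cold SAM. The reaction was started by SAM/MEKK2 addition after a 30 min RT compound–enzyme preincubation. Enzyme was tag-free full-length human SMYD3 from E. coli, in buffer of 25 mM Tris-Cl pH 8.0, 1 mM TCEP, 0.005% BSG, 0.005% Tween 20.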

[1] = read-out: SMYD3 Biochem IC50 (μM)*

Chain of SMYD3 (Q9H7B4 whole entry): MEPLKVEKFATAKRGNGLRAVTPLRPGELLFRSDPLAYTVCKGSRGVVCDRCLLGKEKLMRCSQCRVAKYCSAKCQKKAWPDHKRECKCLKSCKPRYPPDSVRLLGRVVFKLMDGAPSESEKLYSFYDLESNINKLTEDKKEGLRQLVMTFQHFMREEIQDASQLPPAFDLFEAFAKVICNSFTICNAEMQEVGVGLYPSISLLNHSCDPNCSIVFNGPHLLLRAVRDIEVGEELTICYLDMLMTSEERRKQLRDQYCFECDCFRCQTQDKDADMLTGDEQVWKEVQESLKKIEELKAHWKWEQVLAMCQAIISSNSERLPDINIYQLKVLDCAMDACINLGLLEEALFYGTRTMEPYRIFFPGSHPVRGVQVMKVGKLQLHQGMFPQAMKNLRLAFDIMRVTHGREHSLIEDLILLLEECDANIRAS

IC50 (read-out: SMYD3 Biochem IC50) [µM]	IC50 [1] [µM]	SMILES	other results
11.2		NCCC(=O)N[C@H]1CC[C@H](NC(=O)c2ccc3c(c2)CCCC3)CC1 [compound 203, N-((1r,4r)-4-(3-aminopropanamido)cyclohexyl)-5,6,7,8-tetrahydronaphthalene-2-carboxamide]	
30.6		N[C@H]1CC[C@H](C(=O)Nc2ccc3c(c2)CC(=O)N3)CC1 [compound 428, (1r,4r)-4-amino-N-(2-oxoindolin-5-yl)cyclohexane-1-carboxamide]	
	193	CN1C(=O)Cc2ccc(C(=O)NC3CCN(C(=O)[C@@H](N)Cc4ccc(O)cc4)CC3)cc21 [compound 88, N-(1-(L-tyrosyl)piperidin-4-yl)-1-methyl-2-oxoindoline-6-carboxamide]	
34.9		COc1ccc2cc(C(C)C(=O)NC(C)C3CCN(C(=O)[C@H](C)N)CC3)ccc2c1 (stereo partly drawn) [compound 334, N-(1-(1-(L-alanyl)piperidin-4-yl)ethyl)-2-(6-methoxynaphthalen-2-yl)propanamide]	
		NCCC(=O)N[C@H]1CC[C@H](NC(=O)c2cc3cn[nH]c3cn2)CC1 [compound 529, N-((1r,4r)-4-(3-aminopropanamido)cyclohexyl)-1H-pyrazolo[3,4-c]pyridine-5-carboxamide]	IC50 (Table 1A, average of n = 1 to n = 50, read-out: SMYD3 Biochem IC50): 4.45 µM
4.46		NCCC(=O)N[C@H]1CC[C@H](C(=O)Nc2ccc3c(c2)CC(=O)N3)CC1 [compound 467, (1r,4r)-4-(3-aminopropanamido)-N-(2-oxoindolin-5-yl)cyclohexane-1-carboxamide]	
37.9		N[C@H]1CC[C@H](NC(=O)c2ccc3c(c2)CNC3=O)CC1 [compound 487, N-((1r,4r)-4-aminocyclohexyl)-1-oxoisoindoline-5-carboxamide]	
	13.5	CCc1cc(C(=O)N[C@H]2CC[C@H](N)CC2)ns1 [compound 17, N-((1r,4r)-4-aminocyclohexyl)-5-ethylisothiazole-3-carboxamide]	
> 100		N[C@H]1CC[C@H](NC(=O)c2cccc(F)n2)CC1 [compound 389, N-((1r,4r)-4-aminocyclohexyl)-6-fluoropicolinamide]	
> 100		Cn1ccc(C(=O)N[C@H]2CC[C@H](N)CC2)n1 [compound 350, N-((1r,4r)-4-aminocyclohexyl)-1-methyl-1H-pyrazole-3-carboxamide]	
> 100		COc1cccc2[nH]cc(C(=O)N[C@H]3CC[C@H](NC(=O)CCN)CC3)c12 [compound 371, N-((1r,4r)-4-(3-aminopropanamido)cyclohexyl)-4-methoxy-1H-indole-3-carboxamide]	
	> 100	CC(NC(=O)c1cncc(F)c1)C1CCN(C(=O)[C@H](C)N)CC1 (stereo partly drawn) [compound 157, N-(1-(1-(L-alanyl)piperidin-4-yl)ethyl)-5-fluoronicotinamide]	
	40.4	O=C1Cc2cc(C(=O)NCC3(O)CCNCC3)ccc2N1 [compound 105, N-((4-hydroxypiperidin-4-yl)methyl)-2-oxoindoline-5-carboxamide]	
22.8		NCCC(=O)N[C@H]1CC[C@H](NC(=O)Cc2cccc(C(F)(F)F)c2)CC1 [compound 477, 3-amino-N-((1r,4r)-4-(2-(3-(trifluoromethyl)phenyl)acetamido)cyclohexyl)propanamide]	
	> 100	N[C@H]1CC[C@H](NC(=O)c2ccncc2)CC1 [compound 140, N-((1r,4r)-4-aminocyclohexyl)isonicotinamide]	
> 100		N[C@H]1CC[C@H](NC(=O)Cc2c[nH]c3cccnc23)CC1 [compound 408, N-((1r,4r)-4-aminocyclohexyl)-2-(1H-pyrrolo[3,2-b]pyridin-3-yl)acetamide]	
> 100		CC(NC(=O)c1ccc(N)nc1)C1CCN(C(=O)[C@H](C)N)CC1 (stereo partly drawn) [compound 387, N-(1-(1-(L-alanyl)piperidin-4-yl)ethyl)-6-aminonicotinamide]	
	> 100	N[C@H]1CC[C@H](NC(=O)c2cccnc2)CC1 [compound 143, N-((1r,4r)-4-aminocyclohexyl)nicotinamide]	

SMILES	IC50 (read-out: SMYD3 Biochem IC50) [µM]	IC50 [1] [µM]	other results
NCCC(=O)N[C@H]1CC[C@H](NC(=O)c2ccncc2)CC1 [compound 139, N-((1r,4r)-4-(3-aminopropanamido)cyclohexyl)isonicotinamide]		> 100	
